Laboratory results published in PMC7311426, “An amphipathic peptide with antibiotic activity against multidrug-resistant Gram-negative bacteria” (Nature Communications, 2020).
Marks after values point to notes of the source that are not given here.

Legend:
Test in all cases: microbe, parasite or virus in culture
[1] = system: A. baumannii clinical isolates
How it was run: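 MIC90 from CLSI broth microdilution (M07-A9) in two clinical-isolate panels. US panel (331 isolates, 2010-2012): AA139 diluted in 0.01% acetic acid/0.1% BSA. Worldwide panel (445 isolates, 2011-2013, four regions): CAMHB, with 0.002% Tween 80 added for AA139 and polymyxin B.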

K. pneumoniae = settings: mode of 6 replicates
How it was run: (§1)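 MICs were scored by eye after 18-20 h static incubation at 37 °C, with bacteria at 5 × 10^5 CFU mL^−1 in MHB. Peptides were serially diluted 2-fold over 12 points, top 128 or 64 μg mL^−1. CAMHB (CLSI) and 1% agarose-MHB variants were also run, at least six replicates.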

E. coli = system: E. coli
How it was run: as §1

P. aeruginosa = settings: mode of 6 replicates
How it was run: as §1

S. enterica Typhi = S. enterica Typhi ATCC 14028 control strain, CDC 6516-60; CAMHB; mode of 6 replicates
How it was run: as §1

S. aureus = S. aureus ATCC 25923 MSSA; MHB; mode of 6 replicates
How it was run: as §1

A. baumannii = settings: mode of 6 replicates
How it was run: as §1

colistin was tested, and the MIC ([1]; US isolates 2010-2012, isolate CID 1919446, Rep 1) was 2 µg/mL, the MIC ([1]; US isolates 2010-2012, isolate CID 1919446, Rep 2) was 1 µg/mL and the MIC ([1]; US isolates 2010-2012, isolate CID 1919519, Rep 1) was 1 µg/mL. The MIC ([1]; US isolates 2010-2012, isolate CID 1919519, Rep 2) was 0.5 µg/mL, the MIC ([1]; US isolates 2010-2012, isolate CID 1919714, Rep 1) was over 32 µg/mL and the MIC ([1]; US isolates 2010-2012, isolate CID 1919714, Rep 2) was over 32 µg/mL. The MIC ([1]; US isolates 2010-2012, isolate CID 1919942, Rep 1) was 2 µg/mL, the MIC ([1]; US isolates 2010-2012, isolate CID 1919942, Rep 2) was 2 µg/mL and the MIC ([1]; US isolates 2010-2012, isolate CID 1930670, Rep 1) was 4 µg/mL. The MIC ([1]; US isolates 2010-2012, isolate CID 1930670, Rep 2) was 2 µg/mL, the MIC ([1]; US isolates 2010-2012, isolate CID 1930676, Rep 1) was 4 µg/mL and the MIC ([1]; US isolates 2010-2012, isolate CID 1930676, Rep 2) was 2 µg/mL. The MIC ([1]; US isolates 2010-2012, isolate CID 2727597, Rep 1) was over 32 µg/mL, the MIC ([1]; US isolates 2010-2012, isolate CID 2727597, Rep 2) was 32 µg/mL and the MIC ([1]; US isolates 2010-2012, isolate CID 2727598, Rep 1) was 2 µg/mL. For the same substance, the MIC ([1]; US isolates 2010-2012, isolate CID 2727598, Rep 2) was 2 µg/mL, the MIC ([1]; US isolates 2010-2012, isolate CID 2727898, Rep 1) was 8 µg/mL and the MIC ([1]; US isolates 2010-2012, isolate CID 2727898, Rep 2) was 8 µg/mL. The MIC ([1]; US isolates 2010-2012, isolate CID 2728115, Rep 1) was 4 µg/mL, the MIC ([1]; US isolates 2010-2012, isolate CID 2728115, Rep 2) was 1 µg/mL and the MIC ([1]; US isolates 2010-2012, isolate CID 2728119, Rep 1) was 2 µg/mL. The MIC ([1]; US isolates 2010-2012, isolate CID 2728119, Rep 2) was 2 µg/mL, the MIC ([1]; US isolates 2010-2012, isolate CID 2728650, Rep 1) was 8 µg/mL and the MIC ([1]; US isolates 2010-2012, isolate CID 2728650, Rep 2) was 2 µg/mL. It also gave an MIC ([1]; US isolates 2010-2012, isolate CID 2728663, Rep 1) of 0.5 µg/mL, an MIC ([1]; US isolates 2010-2012, isolate CID 2728663, Rep 2) of 0.5 µg/mL and an MIC ([1]; US isolates 2010-2012, isolate CID 2732481, Rep 1) of over 32 µg/mL. For the same substance, the MIC ([1]; US isolates 2010-2012, isolate CID 2732481, Rep 2) was over 32 µg/mL, the MIC ([1]; US isolates 2010-2012, isolate CID 2732486, Rep 1) was 1 µg/mL and the MIC ([1]; US isolates 2010-2012, isolate CID 2732486, Rep 2) was 1 µg/mL. It also gave an MIC ([1]; US isolates 2010-2012, isolate CID 2762740, Rep 1) of over 32 µg/mL, an MIC ([1]; US isolates 2010-2012, isolate CID 2762740, Rep 2) of 32 µg/mL and an MIC ([1]; US isolates 2010-2012, isolate CID 2801947, Rep 1) of 1 µg/mL. The MIC ([1]; US isolates 2010-2012, isolate CID 2801947, Rep 2) was 0.5 µg/mL, the MIC ([1]; US isolates 2010-2012, isolate CID 2801949, Rep 1) was 0.25 µg/mL and the MIC ([1]; US isolates 2010-2012, isolate CID 2801949, Rep 2) was 0.5 µg/mL. For the same substance, the MIC ([1]; US isolates 2010-2012, isolate CID 2802027, Rep 1) was 0.5 µg/mL, the MIC ([1]; US isolates 2010-2012, isolate CID 2802027, Rep 2) was 1 µg/mL and the MIC ([1]; US isolates 2010-2012, isolate CID 2802028, Rep 1) was 0.5 µg/mL. The MIC ([1]; US isolates 2010-2012, isolate CID 2802028, Rep 2) was 1 µg/mL, the MIC ([1]; US isolates 2010-2012, isolate CID 2802029, Rep 1) was 0.5 µg/mL and the MIC ([1]; US isolates 2010-2012, isolate CID 2802029, Rep 2) was 0.5 µg/mL. It also gave an MIC ([1]; US isolates 2010-2012, isolate CID 2802031, Rep 1) of 0.5 µg/mL, an MIC ([1]; US isolates 2010-2012, isolate CID 2802031, Rep 2) of 0.5 µg/mL and an MIC ([1]; US isolates 2010-2012, isolate CID 2802109, Rep 2) of 0.5 µg/mL. For the same substance, the MIC ([1]; US isolates 2010-2012, isolate CID 2802111, Rep 2) was 0.25 µg/mL, the MIC ([1]; US isolates 2010-2012, isolate CID 2802187, Rep 1) was 1 µg/mL and the MIC ([1]; US isolates 2010-2012, isolate CID 2802187, Rep 2) was 1 µg/mL. For the same substance, the “BMD MIC” value (K. pneumoniae; K. pneumoniae ATCC 13883 type strain (polymyxin/colistin heteroresistant), MHB) was 0.03-4# μg mL-1, the “BMD MIC” value (K. pneumoniae; K. pneumoniae ATCC 700603 (K6), MDR, OXA-2/SHV-18, CAMHB) was 0.125 µg/mL and the “BMD MIC” value (K. pneumoniae; K. pneumoniae ATCC 700603 (K6), MDR, OXA-2/SHV-18, MHB) was 0.03 µg/mL. The “BMD MIC” value (K. pneumoniae; K. pneumoniae BAA-2146, MDR, ESBL, NDM-1 pos, MHB) was 0.06 µg/mL, the “BMD MIC” value (K. pneumoniae; K. pneumoniae Greece CI 8_GR_13, XDR, KPC-2, PmxR, MHB) was over 64 µg/mL and the “BMD MIC” value (E. coli; E. coli ATCC 25922 FDA control strain, CAMHB, mode of 6 replicates) was 0.06 to 0.125 µg/mL. For the same substance, the “BMD MIC” value (E. coli; E. coli ATCC 25922 FDA control strain, MHB, mode of 6 independent biological replicates) was 0.25 µg/mL, the “BMD MIC” value (E. coli; E. coli ATCC 700926 K12 (MG1655), CAMHB, mode of 6 replicates) was at most 0.03 µg/mL and the “BMD MIC” value (E. coli; E. coli ATCC 700928 CFT073 UPEC, CAMHB, mode of 6 replicates) was at most 0.25 µg/mL. The “BMD MIC” value (E. coli; E. coli CI 12-6-83 Hong Kong, mcr-1 pos, ESBL, CAMHB, mode of 6 replicates) was 4 µg/mL, the “BMD MIC” value (P. aeruginosa; P. aeruginosa ATCC 27853 control strain, CAMHB) was 0.125 µg/mL and the “BMD MIC” value (P. aeruginosa; P. aeruginosa ATCC 27853 control strain, MHB) was 0.125 µg/mL. For the same substance, the “BMD MIC” value (P. aeruginosa; P. aeruginosa FADDI-070, MDR, PmxR, MHB/CAMHB) was 64 µg/mL, the “BMD MIC” value (S. enterica Typhi) was 0.03 µg/mL and the “BMD MIC” value (S. aureus) was over 128 µg/mL. For the same substance, the “BMD MIC” value (A. baumannii; A. baumannii ATCC 19636 type strain, CAMHB) was 0.06 µg/mL, the “BMD MIC” value (A. baumannii; A. baumannii ATCC 19636 type strain, MHB) was 0.06 µg/mL and the “BMD MIC” value (A. baumannii; A. baumannii Greece CI, XDR, PmxR, MHB) was over 32 µg/mL.
